# Experimental data: patent US5565437A, “2',3'-dideoxy-2'-fluoro-purine nucleosides and methods for using same” (priority 1992, dated 1996)
# Assays:
# [1] = system: human immunodeficiency virus (HIV); details: background statement; cited from earlier work
# [2] = relative to adenosine; cited from earlier work
# [3] = Acid-catalyzed decomposition / stability in acid, 37° C., HPLC; type: physicochemical
# Description: In order to study acid-catalyzed decomposition of the subject compounds, a pH 1 buffer was prepared by dissolving 0.746 g KCl and 26.8 g 1.0N HCl in sufficient distilled water to give 200 ml total volume. Ten ml of buffer, prewarmed to 37° C., was added to 102 micrograms of ddA (Compound I), and 93 micrograms of each compounds II or III, 2',3'-dideoxy-2'-alpha-flourodeminine or 2'-beta-flouro-2',3'-dideoxyadenosine. The samples were shaken and maintained at 37° C. Aliquots were taken at timed intervals and neutralized immediately with 0.1 NaOH and chilled on ice. The amounts of ddA and the fluorinated analogs were determined by HPLC analysis using a 4.6×250 mm […] Ultrasphere ODS column protected by a guard column packed with 37-50 micron Vydac 201SC. Elution was with 12% acetonitrile in 0.01 M pH 6.8 phosphate buffer at 1.0 ml/minute. The integrator peak areas were plotted as a function of time, and the data was fitted to a first order decomposition curve by a computer program (MLAB).
# [4] = system: adenosine deaminase; assay: Metabolism by adenosine deaminase in the body; type: in vitro ADME
# [5] = system: human immunodeficiency virus (HIV; HTLV-IIIB virus) in ATH8 cells; assay: HIV cytopathic assay using ATH8 cells (protection against the cytopathic effect of HIV); type: cell-based
# Description: To test the cytopathic effect of the compounds of the present invention, HIV cytopathic assay was performed using ATH8 cells as described by Mitsuya et al., Proc. Nat. Acad. Sci. USA, 83, 1911 (1986). In brief, 2×10^5 ATH8 cells were preexposed to polybrene, exposed to HTLV-IIIB virus (2000 virus particles/cell) for 45 minutes after treatment with polybrene, resuspended in 1 ml of culture medium containing Interleukin 2 in the presence or absence of various concentrations of compounds, and incubated in culture tubes at 37° C. in 5% CO2 /95% air humidified atmosphere. Control cells were treated similarly but were not exposed to the virus. At various times on days 5 to 7 of culture, the total viable cells were counted in a hemocytometer by the trypan blue dye exclusion method. In the HIV cytopathic effect assay using ATH8 cells, 0.5 to 5 virus particles per cell represent the minimum cytopathic dose of the virus.
# [6] = system: HIV; details: background statement; cited from earlier work
compound,measurement,setting,value
"Nc1ncnc2c1ncn2[C@H]1CC[C@@H](CO)O1 [Compound I, 2',3'dideoxyadenosine]",in vitro activity against HIV,[1],potent in vitro activity
same,"rate of acid-catalyzed hydrolysis of the glycosidic bond, times faster than adenosine",[2],"40,000 times"
same,half-life,"[3]; ph 1 kcl/hcl buffer, pH 1.0, 37° C. (FIG. 3)",35 s
"Nc1ncnc2c1ncn2[C@@H]1O[C@H](CO)C[C@H]1F [Compound II, 2',3'-dideoxy-2'-alpha-flouroadenosine]",stability to acid-catalyzed decomposition,"[3]; pH 2, 37° C. (FIG. 2)",stable to acid-catalyzed decomposition
"Nc1ncnc2c1ncn2[C@@H]1O[C@H](CO)C[C@@H]1F [Compound III, 2',3'-dideoxy-2'-beta-fluoroadenosine]",metabolism by adenosine deaminase,[4],"metabolism of 2',3'-dideoxy-2'-beta-fluoroadenosine to compound IV"
same,"durability of the antiviral effect, compared with the parent compound I",[5]; compared with compound I (ddA),as durable as that of the parent compound
same,"activity and potency in protecting ATH8 cells against the cytopathic effect of HIV, compared with ddA","[5]; substantial viral excess, FIG. 1",approximately as active and potent as ddA
same,change after exposure to acidic conditions,"[3]; 24 hour exposure, pH 1 (FIG. 3)",completely unchanged
Cc1ccc(C(=O)Nc2ccc(S(=O)(=O)O)c3cc(S(=O)(=O)O)cc(S(=O)(=O)O)c23)cc1NC(=O)c1cccc(NC(=O)Nc2cccc(C(=O)Nc3cc(C(=O)Nc4ccc(S(=O)(=O)O)c5cc(S(=O)(=O)O)cc(S(=O)(=O)O)c45)ccc3C)c2)c1 [suramin],HIV replication in the presence of compound,[6],considerably slower
antimoniotungstate,HIV replication in the presence of compound,[6],considerably slower
